Measurements: PubChem BioAssay AID1013 (Columbia University Molecular Screening Center, 2008)
Calls of active or inactive are those of the source. How the calls were made is not given here.

What was measured:
[1] = system: TNFa-stimulated cells, VCAM1 expression imaging; test: inhibitors of TNFa-induced VCAM1 expression, confirmation, imaging, TNFa stimulus, retest and dose response (AID 1013);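 on cell count: compound on cells 1 h before TNFa then 24 h more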
[2] = as above; details: TNFa-stimulated cells, VCAM1 expression imaging; cell count; at 10 µM; stronger effect = lower value

Row | SMILES | IC50 [1] | cell count [2]
1 | CC(=O)c1c(C)oc2ccc(N(C(C)=O)S(=O)(=O)c3ccc(Cl)c([N+](=O)[O-])c3)cc12 | > 10 µM (inactive) | 104%
2 | O=C(CS(=O)c1ccc(C(F)(F)F)cc1[N+](=O)[O-])Oc1ccc(Cl)cc1 (stereo not drawn) | > 10 µM (inactive) | 111%
3 | CCCOc1ccc(C(=O)C(CN2CCOCC2)c2ccccc2)cc1 (stereo not drawn) | 5.2 µM | 79.7%
4 | COc1ccc(-c2cc3ccccc3oc2=O)cc1NC(=O)c1ccc([N+](=O)[O-])o1 | > 10 µM (inactive) | 107%
5 | CC[C@@H](C)[C@H](NC(=O)OC(C)(C)C)c1nnc(S(=O)(=O)Cc2cc(C)ccc2C)o1 | > 10 µM (inactive) | 117%
6 | Cc1ccc(Nc2nc(-c3c(C)nc4ccccn34)cs2)cc1 | 3.8 µM | 27.9%
7 | O=c1c2ccccc2nc(/C=C/c2ccc([N+](=O)[O-])o2)n1CCCO | 1.54 µM | 83.1%
8 | O=C1c2cccc3c([N+](=O)[O-])ccc(c23)C(=O)N1c1ccc(Cl)cn1 | > 10 µM (inactive) | 103%
9 | COc1cc(C2C3=C(Nc4ncnn42)c2ccccc2CC3)cc(OC)c1OC (stereo not drawn) | 1.76 µM | 27.6%
10 | CCC(=O)Nc1nc(-c2ccccc2)ns1 | > 10 µM (inactive) | 115%
11 | COc1cc(/C=C(/C#N)C(=O)NCCc2c[nH]c3ccccc23)ccc1OCc1ccccc1F | > 10 µM (inactive) | 98.2%
12 | Cc1cc(C)c(/C=N/NC(N)=O)c(C)c1/C=N/NC(N)=O | 0.517 µM | 71.9%
13 | Oc1ccc(Nc2nc3ccccc3nc2Nc2ccc(O)cc2)cc1 | 3.26 µM | 1.62%
14 | CC(C)Oc1ccccc1C1CC(=O)Nc2cc3c(cc21)OCCO3 (stereo not drawn) | > 10 µM (inactive) | 104%
15 | COc1ccc(-c2cc(C(F)(F)F)n3nc(C(=O)Nc4cc(C)on4)cc3n2)cc1OC | > 10 µM (inactive) | 97.9%
16 | COc1cc(C2C(C#N)=C(N)Oc3cc(N(C)C)ccc32)cc2c1OCO2 (stereo not drawn) | 5.11 µM | 47.6%
17 | CCSc1nc2ccccc2n1C(=O)/C=C\c1ccc(OC)c(OC)c1 | > 10 µM (inactive) | 98.3%
18 | Cc1cccc(OCC(=O)Nc2cc(C)ccc2O)c1 | 0.452 µM | 91.2%
19 | COc1ccccc1-c1cc(C(F)(F)F)nc(S(=O)(=O)CCCC(=O)N2CCCCC2C)n1 (stereo not drawn) | > 10 µM (inactive) | 88.8%
20 | CC1CC(=O)NN=C1c1ccc(NCCO)c([N+](=O)[O-])c1 (stereo not drawn) | 0.051 µM | 71.6%

Row | SMILES | IC50 [1] | cell count [2]
21 | CCN(CC)c1ccc2c(c1)OC(N)=C(C#N)C2c1cccnc1 (stereo not drawn) | 0.38 µM | 29.8%
22 | O=c1cc(C(Cl)(Cl)Cl)oc2c1ccc1ccccc12 | > 10 µM (inactive) | 104%
23 | O=Cc1cc2ccccc2nc1SCc1ccc(Cl)cc1 | > 10 µM (inactive) | 99.9%
24 | Cc1cccc2cc(C#N)c(SCC(=O)N3CC(=O)Nc4ccccc43)nc12 | > 10 µM (inactive) | 110%
25 | N=c1c2c(-c3ccccc3)c(-c3ccccc3)n(Cc3ccccc3)c2ncn1CCCn1ccnc1 | 1.06 µM | 56.8%
26 | COc1cc(C2C(C#N)=C(C)NC3=C2C(=O)c2ccccc23)cc(OC)c1OC (stereo not drawn) | 0.221 µM | 32%
27 | Cc1cc(C)c(S(=O)(=O)Nc2ccc3c4c(cccc24)CC3)c(C)c1 | > 10 µM (inactive) | 106%
28 | C/C=C/COC(=O)c1[nH]c2c(c1C)C(=O)CC(c1ccco1)C2 (stereo not drawn) | > 10 µM (inactive) | 73.9%
29 | O=S(=O)(c1ccc(Cl)c(Cl)c1)c1snnc1-c1ccccc1 | 7.93 µM | 99.6%
30 | CCOc1cc(/C=N\NC(=O)Cc2ccccc2)ccc1OCC(=O)Nc1ccc(C)c(C)c1 | > 10 µM (inactive) | 110%
31 | O=C(COC(=O)c1ccccc1C(=O)c1ccc(Cl)c([N+](=O)[O-])c1)NC1CCCCCC1 | > 10 µM (inactive) | 91%
32 | COc1ccc(C(=O)c2ccc(N(C)C)cc2)c2ccccc12 | > 10 µM (inactive) | 93.2%
33 | COc1ccccc1-n1cnc2cc(NCc3ccco3)ccc21 | > 10 µM (inactive) | 41.8%
34 | Cc1ccc2nc(SCC(=O)Nc3cc(C(F)(F)F)ccc3N3CCOCC3)[nH]c2c1 | > 10 µM (inactive) | 105%
35 | CCN(CC)c1ccc(-c2nn3c(-c4ccccc4OC)nnc3s2)cc1 | 2.97 µM | 31.6%
36 | CCc1ccc2oc(-c3cc(N)ccc3O)nc2c1 | > 10 µM (inactive) | 97.7%
37 | COc1ccc(C(=O)c2c(C(F)(F)F)oc3c2C(=O)c2ccccc2C3=O)cc1 | > 10 µM (inactive) | 105%
38 | C/C(=N\O)c1ccc2c3ccccc3n(C)c2c1 | > 10 µM (inactive) | 89%
39 | O=C(OCn1ncc(Br)c(Br)c1=O)c1ccc(F)cc1 | 2.86 µM | 2.02%
